Assay results taken from DBAASP.
In brackets after ≈: the same amount, converted by molar mass. Blank lines part the entries; values can stand above or below the compound they belong to.

Tests used:
Assay in all cases: ≥ marks a high value that may be exact or a test limit, other limits are often not marked, values filed in µg/mL are converted to µM
[1] = system: Escherichia coli ATCC 25922
[2] = system: Klebsiella pneumoniae ATCC 700603
[3] = system: Salmonella enterica subsp. enterica serovar Typhimurium ATCC 14028
[4] = system: Staphylococcus aureus ATCC 29313
[5] = system: Escherichia coli K12 MG1655
[6] = system: Staphylococcus aureus 68 HER 1049
[7] = system: Acinetobacter baumannii AB1
[8] = system: Acinetobacter baumannii AB2
[9] = system: Acinetobacter baumannii AB3
[10] = system: Acinetobacter baumannii ATCC 19606
Pseudomonas aeruginosa 1 = system: Pseudomonas aeruginosa 1
Pseudomonas aeruginosa 5 = system: Pseudomonas aeruginosa 5
[11] = system: Pseudomonas aeruginosa ATCC 27853
[12] = system: Carnobacterium maltaromaticum UI49
[13] = system: Lacticaseibacillus casei NCDO 2713
[14] = system: Lacticaseibacillus casei subsp. casei NCDO 161
[15] = system: Lactiplantibacillus plantarum 965
[16] = system: Lactiplantibacillus plantarum UI50
[17] = system: Latilactobacillus sakei 706
[18] = system: Latilactobacillus sakei NCDO 2714
[19] = system: Pediococcus pentosaceus NCDO 990
[20] = system: Pediococcus pentosaceus Pac1.0
[21] = system: Weissella viridescens NCDO 1655
Listeria grayi DSM 20601 = system: Listeria grayi DSM 20601
[22] = system: Staphylococcus epidermidis DSM 3269
[23] = system: Candida albicans ATCC 2002
[24] = system: Candida albicans ATCC 90028
[25] = system: Candida parapsilosis ATCC 22019
[26] = system: Enterobacter cloacae ATCC 13047
[27] = system: Enterococcus faecalis ATCC 29212
Escherichia coli IS117# = system: Escherichia coli IS117#
Escherichia coli IS37# = system: Escherichia coli IS37#
[28] = system: Klebsiella pneumoniae IS59#
[29] = system: Pseudomonas aeruginosa CMCCB 1010
[30] = system: Pseudomonas aeruginosa IS350#
Shigella dysenteriae = system: Shigella dysenteriae
[31] = system: Staphylococcus aureus ATCC 25923

SMILES: CC[C@H](C)[C@H](NC(=O)[C@H](CCCCN)NC(=O)CNC(=O)[C@H](CCSC)NC(=O)[C@H](C)NC(=O)[C@H](Cc1cnc[nH]1)NC(=O)[C@H](C)NC(=O)[C@@H](NC(=O)[C@H](CC(C)C)NC(=O)[C@H](CCC(N)=O)NC(=O)[C@H](CCCCN)NC(=O)CNC(=O)[C@H](C)NC(=O)[C@H](CC(=O)O)NC(=O)[C@H](CCCCN)NC(=O)[C@@H](NC(=O)[C@@H](NC(=O)[C@H](CC(=O)O)NC(=O)[C@H](Cc1ccccc1)NC(=O)[C@@H](NC(=O)CN)C(C)C)[C@@H](C)CC)[C@@H](C)CC)C(C)C)C(=O)N[C@@H](C)C(=O)N[C@@H](CCC(=O)O)C(=O)N[C@@H](CCCCN)C(=O)N[C@H](C(N)=O)C(C)C [GVFDIIKDAGKQLVAHAMGKIAEKV]
MIC [1]: 303 µM (≈ 800 µg/mL) | MIC [2]: > 303 µM | MIC [3]: > 303 µM | MIC [4]: ≥ 303 µM

SMILES: CC[C@H](C)[C@H](NC(=O)CNC(=O)[C@H](CO)NC(=O)[C@@H](N)CS)C(=O)N[C@H](C(=O)N[C@@H](CCCCN)C(=O)N[C@@H](CCC(N)=O)C(=O)N[C@H](C(=O)N[C@@H](CS)C(=O)N[C@H](C(=O)N[C@@H](CS)C(=O)N[C@@H](Cc1ccc(O)cc1)C(=O)N[C@@H](CCCN=C(N)N)C(=O)N[C@@H](CCCCN)C(=O)O)[C@@H](C)O)[C@@H](C)O)[C@@H](C)CC [CSGIIKQTCTCYRK]
MIC (Listeria grayi DSM 20601): 30 µM (≈ 48.1 µg/mL) | MIC [22]: 30 µM (≈ 48.1 µg/mL)

SMILES: CC[C@H](C)[C@@H]1NC(=O)[C@H](C)NC(=O)[C@@H](NC(=O)[C@H](Cc2ccccc2)NC(=O)[C@@H](NC(=O)[C@H](C)NC(=O)[C@@H]2CCCN2C(=O)CNC(=O)[C@@H](NC(=O)[C@H](CCCCN)NC(=O)[C@H](C)NC(=O)[C@H](C)NC(=O)[C@@H](NC(=O)[C@H](CCCN=C(N)N)NC(=O)[C@H](CC(C)C)NC(=O)[C@@H](NC(=O)[C@H](C)NC(=O)[C@@H]2CCCN2C(=O)[C@H](CC(C)C)NC(=O)[C@@H](N)Cc2ccccc2)C(C)C)C(C)C)C(C)C)C(C)C)CSSC[C@@H](C(=O)O)NC(=O)[C@H](CCCCN)NC(=O)[C@H](CCC(N)=O)NC(=O)[C@H]([C@@H](C)O)NC1=O [FLPAVLRVAAKVGPAVFCAITQKC]
MIC [23]: 0.2 µM (≈ 0.5 µg/mL) | MIC [24]: 4 µM (≈ 9.99 µg/mL) | MIC [25]: 2 µM (≈ 5 µg/mL) | MIC [26]: 2 µM (≈ 5 µg/mL) | MIC [27]: 4 µM (≈ 9.99 µg/mL) | MIC [1]: 0.999 µM (≈ 2.5 µg/mL) | MIC (Escherichia coli IS117#): 20 µM (≈ 50 µg/mL) | MIC (Escherichia coli IS37#): 20 µM (≈ 50 µg/mL) | MIC [2]: 4 µM (≈ 9.99 µg/mL) | MIC [28]: 2 µM (≈ 5 µg/mL) | MIC [11]: 2 µM (≈ 5 µg/mL) | MIC [29]: 4 µM (≈ 9.99 µg/mL) | MIC [30]: 4 µM (≈ 9.99 µg/mL) | MIC (Shigella dysenteriae): 4 µM (≈ 9.99 µg/mL) | MIC [31]: 0.999 µM (≈ 2.5 µg/mL)

Continued, in another order:

MIC [5]: 7.32 µM (≈ 16 µg/mL) | MIC [6]: 7.32 µM (≈ 16 µg/mL)
SMILES: CC(C)C[C@H](NC(=O)[C@H](CCCN=C(N)N)NC(=O)[C@H](CCCCN)NC(=O)[C@H](Cc1c[nH]c2ccccc12)NC(=O)[C@H](Cc1c[nH]c2ccccc12)NC(=O)[C@H](CCCCN)NC(=O)[C@H](Cc1c[nH]c2ccccc12)NC(=O)[C@@H](N)Cc1c[nH]c2ccccc12)C(=O)N[C@@H](CCCN=C(N)N)C(=O)N[C@@H](CCCN=C(N)N)C(=O)N[C@@H](CC(C)C)C(=O)N[C@@H](Cc1ccccc1)C(=O)N[C@@H](CC(C)C)C(=O)N[C@@H](CC(C)C)C(=O)N[C@H](C(=O)O)C(C)C [WWKWWKRLRRLFLLV]

MIC [7]: 2.58 µM (≈ 8 µg/mL) | MIC [8]: 10.3 µM (≈ 32 µg/mL) | MIC [9]: 5.17 µM (≈ 16 µg/mL) | MIC [10]: 1.29 µM (≈ 4 µg/mL) | MIC (Pseudomonas aeruginosa 1): 2.58 µM (≈ 8 µg/mL) | MIC (Pseudomonas aeruginosa 5): 5.17 µM (≈ 16 µg/mL) | MIC [11]: 2.58 µM (≈ 8 µg/mL)
SMILES: CC[C@H](C)[C@H](NC(=O)[C@H](CCCCN)NC(=O)[C@H](CCCCN)NC(=O)[C@H](Cc1ccc(O)cc1)NC(=O)[C@H](CCC(=O)O)NC(=O)[C@H](CCCN=C(N)N)NC(=O)[C@H](C)NC(=O)[C@@H](N)CC(C)C)C(=O)N[C@H](C(=O)N[C@@H](CCC(=O)O)C(=O)N[C@@H](CCCCN)C(=O)N[C@@H](CC(C)C)C(=O)N[C@@H](CCCCN)C(=O)N[C@@H](CCCN=C(N)N)C(=O)N[C@@H](Cc1c[nH]c2ccccc12)C(=O)N[C@@H](CC(C)C)C(=O)N[C@@H](CCCN=C(N)N)C(=O)N[C@@H](CCC(N)=O)C(=O)N[C@H](C(=O)N[C@@H](CC(C)C)C(=O)N[C@@H](CCCN=C(N)N)C(=O)N[C@H](C(=O)N[C@@H](CC(C)C)C(=O)N[C@@H](CCCN=C(N)N)C(=O)O)[C@@H](C)O)C(C)C)C(C)C [LAREYKKIVEKLKRWLRQVLRTLR]

MIC [12]: 6 µM (≈ 15.7 µg/mL) | MIC [13]: 6 µM (≈ 15.7 µg/mL) | MIC [14]: 0.25 µM (≈ 0.653 µg/mL) | MIC [17]: 1 µM (≈ 2.61 µg/mL) | MIC [18]: 0.25 µM (≈ 0.653 µg/mL) | MIC [19]: 6 µM (≈ 15.7 µg/mL) | MIC [20]: 0.1 µM (≈ 0.261 µg/mL) | MIC [21]: 0.05 µM (≈ 0.131 µg/mL)
SMILES: CC[C@H](C)[C@H](NC(=O)[C@H](C)NC(=O)[C@@H](NC(=O)[C@H](C)NC(=O)CNC(=O)[C@H](CCSC)NC(=O)[C@H](CCC(N)=O)NC(=O)[C@H](CC(C)C)NC(=O)[C@H](CO)NC(=O)[C@@H](N)Cc1ccc(O)cc1)[C@@H](C)O)C(=O)N[C@@H](CCCCN)C(=O)N[C@@H](CCC(N)=O)C(=O)N[C@H](C(=O)N[C@@H](CCCCN)C(=O)N[C@@H](CCCCN)C(=O)N[C@@H](CC(C)C)C(=O)N[C@@H](Cc1ccccc1)C(=O)N[C@@H](CCCCN)C(=O)N[C@@H](CCCCN)C(=O)N[C@@H](Cc1c[nH]c2ccccc12)C(=O)NCC(=O)N[C@@H](Cc1c[nH]c2ccccc12)C(=O)O)C(C)C [YSLQMGATAIKQVKKLFKKWGW]
MIC [15]: 0.5 µM (≈ 1.31 µg/mL) | MIC [16]: 6 µM (≈ 15.7 µg/mL)
